Results taken from ChEMBL document CHEMBL1201862, “PubChem BioAssay data set” (2004).
Activity calls are given as the source filed them.

Legend:
[1] = tested on: A-375; assay: MITF: Counter assay: A375 proliferation Measured in Cell-Based System Using Plate Reader - 2084-03_Inhibitor_Dose_DryPowder_Activity. [Related pubchem assays (depositor defined):AID488944]; assay type: functional; settings: Homo sapiens
[2] = tested on: A-375; assay: A375 melanoma cell viability reduction, dose response, counter-screen for MITF modulator project, cherry-pick samples, set 2 (AID 540335); assay type: functional, cell-based; settings: Homo sapiens
[3] = target: Trypsin (Sus scrofa, UniProt P00761); assay: porcine trypsin inhibitors, dose response, selectivity assay for Rce1 protease inhibitor project, biochemical, quenched peptide fluorescence, cherry-pick (AID 488789)
[4] = target: CAAX prenyl protease 1 (Saccharomyces cerevisiae S288c, UniProt P47154); assay: Ste24 protease inhibitors, dose response, biochemical, S. cerevisiae, plate reader, cherry-pick (AID 488815)
[5] = target: T1, CAAX prenyl protease 2 (Homo sapiens, UniProt Q9Y256); assay: human Rce1 protease inhibitors, dose response, biochemical, yeast membranes, quenched-peptide fluorescence, cherry-pick (AID 588849)
T1 sequence (Q9Y256 whole entry): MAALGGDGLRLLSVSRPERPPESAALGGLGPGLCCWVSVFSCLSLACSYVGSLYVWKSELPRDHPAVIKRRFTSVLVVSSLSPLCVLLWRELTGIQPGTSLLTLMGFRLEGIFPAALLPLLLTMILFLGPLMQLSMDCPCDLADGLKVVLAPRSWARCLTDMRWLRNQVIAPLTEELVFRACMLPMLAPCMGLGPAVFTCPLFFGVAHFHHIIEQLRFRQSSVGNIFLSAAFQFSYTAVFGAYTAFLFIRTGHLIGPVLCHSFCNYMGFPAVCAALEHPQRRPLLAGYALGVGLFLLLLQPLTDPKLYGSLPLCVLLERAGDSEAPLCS

[6] = target: T2, Ubiquitin-conjugating enzyme E2 N (Homo sapiens, UniProt P61088); assay type: functional;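 also: Dose-response confirmation in a TR-FRET assay detecting UBC13-driven polyubiquitin chain formation, inhibition measured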
T2 sequence (P61088 whole entry): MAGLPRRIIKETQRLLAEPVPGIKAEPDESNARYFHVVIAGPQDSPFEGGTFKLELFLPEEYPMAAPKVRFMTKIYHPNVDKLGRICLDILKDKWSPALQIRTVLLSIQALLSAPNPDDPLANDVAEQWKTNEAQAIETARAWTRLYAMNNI

[7] = target: Cytochrome P450 2C19 (Homo sapiens, UniProt P33261); assay: Cytochrome panel assay with activity outcomes. Panel member name: p450-cyp2c19 Compounds with AC50 equal or less than 10 uM are considered active; assay type: functional
[8] = target: T3, Cytochrome P450 1A2 (Homo sapiens, UniProt P05177);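 also: PubChem cytochrome P450 panel assay, CYP1A2 panel member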
T3 sequence (P05177 whole entry): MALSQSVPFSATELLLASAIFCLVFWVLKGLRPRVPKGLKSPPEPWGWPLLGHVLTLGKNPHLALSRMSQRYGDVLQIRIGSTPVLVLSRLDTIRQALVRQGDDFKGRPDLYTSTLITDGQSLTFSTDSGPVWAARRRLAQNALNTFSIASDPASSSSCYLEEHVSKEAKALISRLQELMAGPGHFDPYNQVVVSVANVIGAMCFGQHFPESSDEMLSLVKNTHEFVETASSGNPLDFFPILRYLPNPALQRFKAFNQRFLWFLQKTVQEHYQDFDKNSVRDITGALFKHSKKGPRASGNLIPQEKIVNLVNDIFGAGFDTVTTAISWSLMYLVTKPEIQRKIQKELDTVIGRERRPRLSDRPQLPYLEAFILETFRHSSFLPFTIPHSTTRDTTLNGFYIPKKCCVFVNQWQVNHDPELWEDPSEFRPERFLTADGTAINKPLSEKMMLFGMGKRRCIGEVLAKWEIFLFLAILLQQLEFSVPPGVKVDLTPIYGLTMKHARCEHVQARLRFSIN

[9] = target: Cytochrome P450 2C9 (Homo sapiens, UniProt P11712)
[10] = target: sn-1-specific diacylglycerol lipase ABHD11 (Mus musculus, UniProt Q8K4F5); assay: Late stage assay provider results from the probe development effort to identify inhibitors of LYPLA1: fluorescence-based cell-based gel-based Activity-Based Protein Profiling (ABPP) IC50 for anti-target ABHD11. [Related pubchem assays (depositor defined):AID2174, AID2177, AID2202, AID2203, AID2232, AID2233, AID493105, AID493108, AID493109, AID493110, AID493111, AID493154, AID493161, AID504892]; assay type: functional
[11] = target: Lysine-specific demethylase 4C (Homo sapiens, UniProt Q9H3R0); assay: GASC-1 (JMJD2C) histone demethylase inhibitors, dose response, biochemical, DELFIA europium, cherry-picked samples (AID 488835); assay type: functional
Lysine-specific demethylase 4C, sequence (Q9H3R0 whole entry): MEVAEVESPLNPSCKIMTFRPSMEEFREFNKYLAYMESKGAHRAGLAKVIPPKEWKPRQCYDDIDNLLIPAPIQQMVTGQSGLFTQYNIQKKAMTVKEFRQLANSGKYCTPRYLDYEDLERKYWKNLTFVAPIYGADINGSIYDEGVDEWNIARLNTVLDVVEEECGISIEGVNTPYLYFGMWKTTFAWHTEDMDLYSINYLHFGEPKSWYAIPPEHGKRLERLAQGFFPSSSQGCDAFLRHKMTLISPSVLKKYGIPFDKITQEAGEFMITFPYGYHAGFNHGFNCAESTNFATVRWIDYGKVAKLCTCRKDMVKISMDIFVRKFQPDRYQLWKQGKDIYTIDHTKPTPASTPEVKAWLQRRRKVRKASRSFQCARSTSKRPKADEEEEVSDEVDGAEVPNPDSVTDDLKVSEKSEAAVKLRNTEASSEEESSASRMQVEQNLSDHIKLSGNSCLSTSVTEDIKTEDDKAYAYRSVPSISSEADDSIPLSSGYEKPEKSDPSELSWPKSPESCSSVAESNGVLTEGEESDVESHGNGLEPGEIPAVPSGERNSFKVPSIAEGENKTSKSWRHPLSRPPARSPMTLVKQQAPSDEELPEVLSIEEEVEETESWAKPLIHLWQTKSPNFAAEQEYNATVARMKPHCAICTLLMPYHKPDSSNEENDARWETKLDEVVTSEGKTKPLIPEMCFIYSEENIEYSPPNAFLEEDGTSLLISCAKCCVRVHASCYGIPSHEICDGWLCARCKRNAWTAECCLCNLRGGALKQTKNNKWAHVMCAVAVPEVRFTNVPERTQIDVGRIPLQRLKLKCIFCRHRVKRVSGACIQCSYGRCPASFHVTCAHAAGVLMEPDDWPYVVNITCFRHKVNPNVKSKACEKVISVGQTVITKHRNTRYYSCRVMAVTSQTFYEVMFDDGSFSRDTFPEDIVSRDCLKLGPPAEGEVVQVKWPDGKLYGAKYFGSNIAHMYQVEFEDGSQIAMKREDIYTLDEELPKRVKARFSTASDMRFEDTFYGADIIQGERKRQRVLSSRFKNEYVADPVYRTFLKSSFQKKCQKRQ

Trypsin, sequence (P00761 whole entry): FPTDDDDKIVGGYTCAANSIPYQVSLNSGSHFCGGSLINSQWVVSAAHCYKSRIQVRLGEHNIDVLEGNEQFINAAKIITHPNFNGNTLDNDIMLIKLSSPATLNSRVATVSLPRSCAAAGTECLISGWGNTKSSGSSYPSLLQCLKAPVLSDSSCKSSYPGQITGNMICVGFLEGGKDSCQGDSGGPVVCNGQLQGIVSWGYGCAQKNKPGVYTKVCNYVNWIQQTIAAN
Cytochrome P450 2C9, sequence (P11712 whole entry): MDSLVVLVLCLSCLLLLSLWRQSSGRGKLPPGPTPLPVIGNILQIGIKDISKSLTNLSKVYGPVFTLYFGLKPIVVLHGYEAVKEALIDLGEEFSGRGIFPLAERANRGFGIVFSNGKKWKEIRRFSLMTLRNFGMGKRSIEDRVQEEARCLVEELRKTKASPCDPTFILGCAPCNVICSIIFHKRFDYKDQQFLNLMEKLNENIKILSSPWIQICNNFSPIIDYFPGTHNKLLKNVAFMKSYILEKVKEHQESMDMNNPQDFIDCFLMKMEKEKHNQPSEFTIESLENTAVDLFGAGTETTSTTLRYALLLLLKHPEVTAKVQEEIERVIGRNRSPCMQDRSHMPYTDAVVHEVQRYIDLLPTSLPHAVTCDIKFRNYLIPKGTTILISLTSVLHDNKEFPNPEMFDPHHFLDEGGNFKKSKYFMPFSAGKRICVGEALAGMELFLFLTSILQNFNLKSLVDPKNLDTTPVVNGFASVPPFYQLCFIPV
CAAX prenyl protease 1, sequence (P47154 whole entry): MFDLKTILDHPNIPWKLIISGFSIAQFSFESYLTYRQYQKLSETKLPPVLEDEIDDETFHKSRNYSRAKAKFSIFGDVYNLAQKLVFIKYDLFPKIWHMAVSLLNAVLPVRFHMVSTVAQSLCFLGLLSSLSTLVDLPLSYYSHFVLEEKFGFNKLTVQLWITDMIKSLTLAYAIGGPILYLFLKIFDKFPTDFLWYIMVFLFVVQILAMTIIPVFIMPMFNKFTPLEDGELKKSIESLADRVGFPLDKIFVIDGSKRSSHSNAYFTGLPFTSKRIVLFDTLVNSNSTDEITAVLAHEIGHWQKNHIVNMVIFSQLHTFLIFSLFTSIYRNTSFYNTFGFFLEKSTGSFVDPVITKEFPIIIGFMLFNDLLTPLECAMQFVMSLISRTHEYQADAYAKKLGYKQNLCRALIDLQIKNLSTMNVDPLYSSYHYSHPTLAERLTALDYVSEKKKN
Cytochrome P450 2C19, sequence (P33261 whole entry): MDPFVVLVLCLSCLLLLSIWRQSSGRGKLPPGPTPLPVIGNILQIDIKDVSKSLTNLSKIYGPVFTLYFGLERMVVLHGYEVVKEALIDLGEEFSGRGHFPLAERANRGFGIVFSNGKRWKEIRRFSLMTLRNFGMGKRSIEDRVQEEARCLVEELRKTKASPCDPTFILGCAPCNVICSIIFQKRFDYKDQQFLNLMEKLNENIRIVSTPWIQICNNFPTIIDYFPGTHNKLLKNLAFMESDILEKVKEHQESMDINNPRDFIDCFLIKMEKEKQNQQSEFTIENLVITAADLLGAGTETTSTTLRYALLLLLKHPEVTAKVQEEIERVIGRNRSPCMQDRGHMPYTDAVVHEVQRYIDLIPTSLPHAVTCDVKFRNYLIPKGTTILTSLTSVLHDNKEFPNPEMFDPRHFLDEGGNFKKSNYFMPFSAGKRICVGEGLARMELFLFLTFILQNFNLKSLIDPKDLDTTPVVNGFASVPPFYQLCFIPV
sn-1-specific diacylglycerol lipase ABHD11, sequence (Q8K4F5 whole entry): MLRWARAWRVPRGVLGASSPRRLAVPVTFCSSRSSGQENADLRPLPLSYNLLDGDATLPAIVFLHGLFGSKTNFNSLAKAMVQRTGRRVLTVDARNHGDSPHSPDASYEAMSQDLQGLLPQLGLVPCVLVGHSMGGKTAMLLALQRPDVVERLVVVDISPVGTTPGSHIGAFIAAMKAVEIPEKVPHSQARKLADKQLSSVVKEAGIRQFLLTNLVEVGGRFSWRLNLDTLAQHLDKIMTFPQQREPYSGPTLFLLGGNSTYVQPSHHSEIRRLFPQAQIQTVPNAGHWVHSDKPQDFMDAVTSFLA

## Cn1c(/C(C#N)=C/c2ccc(-c3ccc(S(N)(=O)=O)cc3)o2)nc2ccccc21
[1]
  AC50: > 11 µM (active)
[2]
  AC50: > 11 µM (active)

## CCc1nnc(NC(=O)c2ccc(NS(=O)(=O)c3ccccc3)cc2)s1
[3]
  AC50: 45.1 µM (active)
[4]
  AC50: 7.02 µM (active)
[5]
  AC50: 5.24 µM (active)

## COc1cc(N)c(Cl)cc1C(=O)N[C@H]1CCN(CCCOc2ccc(F)cc2)C[C@H]1OC [REL-CISAPRIDE]
[6]
  IC50: > 20 µM (inactive)
[7]
  AC50: inactive
[8]
  AC50: inactive
[9]
  AC50: inconclusive

## COCC1CCCCN1C(=O)n1ncc(C(O)(c2ccccc2)c2ccccc2)n1 (stereo unspecified)
[10]
  IC50: 0.000137 µM (active)

## C=CCN1C(=O)NC(=O)/C(=C/c2ccoc2)C1=O
[11]
  AC50: 22.2 µM (active)
